Reference: patent US10047087B2, “Substituted pyrazolo[1,5-A] pyridine as tropomyosin receptor kinase (TrK) inhibitors” (Dr. Reddy's Laboratories Ltd., priority 2011, dated 2018)
Where two headings read alike, the source gives them in different places.

Target: T1, TrkA kinase (Homo sapiens, UniProt P04629)
T1 construct: purchased Upstate, USA
Experiment: In vitro TrkA inhibitory activity using TR-FRET assay
Type: biochemical
Conditions: 5 ng TrkA, 500 μM ATP
Experimental: Determination of In Vitro TrkA Inhibitory Activity Using TR-FRET Assay
Compounds were screened in the TR-FRET assay with TrkA kinase. 5 ng of TrkA [Upstate, USA] kinase was used for assay. The compound was incubated with the kinase for 30 minutes at 20-35° C. After the incubation, substrate mix [40 nM Ultra light poly GT (Perkin Elmer, USA) and 500 μM ATP] was added. The above reaction was stopped by the addition of 40 mM EDTA after 30 minutes. The Eu-labelled antiphospho-tyrosine antibody [Perkin Elmer, USA] was added at 0.5 nM and the fluorescence emission at 615 nm/665 nm [excitation at 340 nm] was measured. The compounds were initially screened at 100 nM, 1 μM and 10 μM concentrations. The potent compounds with >25% inhibition at 1 μM of TrkA were taken for the full dose response studies. The final DMSO concentration in the assay was […]. For IC50 determination, ⅓^rd serial dilution was made from the 20 mM DMSO stock solution. 2 μl of these were transferred to the test wells containing 20 μl reaction mixture [Total reaction volume 22 μl]. The fluorescence was measured in Perkin Elmer Wallac 1420 Multilabel Counter Victor 3. The IC50 was determined by fitting the dose response data to a sigmoidal curve fitting equation using GraphPad Prism software version 5.

[1] = lower bound in nm [sic], upper bound in μM, read-out: TrkA inhibitory activity in-vitro IC50
[2] = read-out: TrkA inhibitory activity in-vitro IC50
[3] = both bounds given in nm, read-out: TrkA inhibitory activity in-vitro IC50
[4] = read-out: TrkA inhibition in-vitro IC50

T1 sequence (P04629 33-796): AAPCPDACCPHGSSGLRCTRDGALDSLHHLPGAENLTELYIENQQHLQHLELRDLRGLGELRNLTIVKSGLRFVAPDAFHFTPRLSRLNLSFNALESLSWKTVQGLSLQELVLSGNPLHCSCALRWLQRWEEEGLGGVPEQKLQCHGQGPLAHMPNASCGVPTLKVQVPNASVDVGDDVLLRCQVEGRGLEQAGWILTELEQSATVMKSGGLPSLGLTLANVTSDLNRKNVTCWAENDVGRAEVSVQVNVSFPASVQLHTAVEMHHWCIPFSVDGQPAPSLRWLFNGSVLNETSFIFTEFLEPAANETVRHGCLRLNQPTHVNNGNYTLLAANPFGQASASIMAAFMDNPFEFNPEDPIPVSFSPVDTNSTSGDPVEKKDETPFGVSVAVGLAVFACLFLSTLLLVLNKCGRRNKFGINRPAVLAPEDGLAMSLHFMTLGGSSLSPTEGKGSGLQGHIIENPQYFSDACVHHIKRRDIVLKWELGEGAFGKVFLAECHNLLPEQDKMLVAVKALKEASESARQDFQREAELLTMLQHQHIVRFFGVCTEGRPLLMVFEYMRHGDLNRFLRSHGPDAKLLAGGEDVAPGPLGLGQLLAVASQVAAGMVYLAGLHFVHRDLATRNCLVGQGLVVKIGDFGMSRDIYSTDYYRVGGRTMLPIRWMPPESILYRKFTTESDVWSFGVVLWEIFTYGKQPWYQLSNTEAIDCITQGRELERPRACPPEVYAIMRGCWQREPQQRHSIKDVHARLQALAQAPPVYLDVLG

Row | IC50 [3] [µM] | IC50 [4] [µM] | Compound | further results
1 | 0.1 to 0.5 | – | O=C(NS(=O)(=O)C1CCC1)c1cnn2ccc(N3CCC[C@@H]3c3cc(F)ccc3F)cc12 [Example 33, (R)-N-(cyclobutylsulfonyl)-5-(2-(2,5-difluorophenyl)pyrrolidin-1-yl)pyrazolo[1,5-a]pyridine-3-carboxamide] | –
2 | 0.1 to 0.5 | – | Cc1noc(C)c1S(=O)(=O)NC(=O)c1cnn2ccc(N3CCC[C@@H]3c3cc(F)ccc3F)cc12 [Example 11, (R)-5-(2-(2,5-difluorophenyl)pyrrolidin-1-yl)-N-((3,5-dimethylisoxazol-4-yl)sulfonyl) pyrazolo[1,5-a]pyridine-3-carboxamide] | –
3 | – | ≤ 0.05 | CC(C)(C)S(=O)(=O)NC(=O)c1cnn2ccc(N3C[C@@H](F)C[C@@H]3c3cccc(F)c3)c(F)c12 [Example 137, Sodium (tert-butylsulfonyl)(4-fluoro-5-((2R,4S)-4-fluoro-2-(3-fluorophenyl)pyrrolidin-1-yl)pyrazolo[1,5-a]pyridine-3-carbonyl)amide] | –
4 | 0.1 to 0.5 | – | CC(C)CS(=O)(=O)NC(=O)c1cnn2ccc(N3CCC[C@@H]3c3cc(F)ccc3F)cc12 [Example 14, (R)-5-(2-(2,5-difluorophenyl)pyrrolidin-1-yl)-N-(isobutylsulfonyl)pyrazolo[1,5-a] pyridine-3-carboxamide] | –
5 | – | ≤ 0.05 | CC(C)(C)S(=O)(=O)NC(=O)c1cnn2ccc(N3C[C@@H](F)C[C@@H]3c3cc(F)ccc3F)cc12 [Example 128, Sodium (tert-butylsulfonyl)(5-((2R,4S)-2-(2,5-difluorophenyl)-4-fluoropyrrolidin-1-yl)pyrazolo[1,5-a]pyridine-3-carbonyl)amide] | –
6 | 0.1 to 0.5 | – | Cn1cc(S(=O)(=O)NC(=O)c2cnn3ccc(N4CCC[C@@H]4c4cc(F)ccc4F)cc23)cn1 [Example 28, (R)-5-(2-(2,5-difluorophenyl)pyrrolidin-1-yl)-N-((1-methyl-1H-pyrazol-4-yl)sulfonyl) pyrazolo[1,5-a]pyridine-3-carboxamide] | –
7 | 0.1 to 0.5 | – | CC(C)(C)S(=O)(=O)NC(=O)c1cnn2ccc(N3CCC[C@@H]3c3cc(F)ccc3-c3ccc(F)cc3)cc12 [Example 54, (R)-N-(tert-butylsulfonyl)-5-(2-(4,4′-difluoro-[1,1′-biphenyl]-2-yl)pyrrolidin-l-yl)pyrazolo[1,5-a]pyridine-3-carboxamide] | –
8 | 0.1 to 0.5 | – | CC(C)(C)S(=O)(=O)NC(=O)c1cnn2ccc(N3CCC[C@@H]3c3cc(F)ccc3OCC(F)(F)F)cc12 [Example 49, (R)-N-(tert-butylsulfonyl)-5-(2-(5-fluoro-2-(2,2,2-trifluoroethoxy)phenyl)pyrrolidin-1-yl)pyrazolo[1,5-a]pyridine-3-carboxamide] | –
9 | 0.1 to 0.5 | – | CC(C)(C)S(=O)(=O)NC(=O)c1cnn2ccc(N3CCC[C@@H]3c3cc(F)cc4c3OCCO4)cc12 [Example 130, Sodium (R)-(tert-butylsulfonyl)(5-(2-(7-fluoro-2,3-dihydrobenzo[b][1,4]dioxin-5-yl)pyrrolidin-1-yl)pyrazolo[1,5-a]pyridine-3-carbonyl)amide] | –
10 | 0.1 to 0.5 | – | CC(C)(C)S(=O)(=O)NC(=O)c1cnn2ccc(N3CCC[C@@H]3c3cc(F)cc(F)c3)cc12 [Example 66, (R)-N-(tert-butylsulfonyl)-5-(2-(3,5-difluorophenyl)pyrrolidin-1-yl)pyrazolo[1,5-a]pyridine-3-carboxamide] | –

The remaining lines, values behind:

Row | Compound | IC50 [3] [µM] | IC50 [4] [µM] | further results
11 | O=C(NS(=O)(=O)c1ccc(F)cc1)c1cnn2ccc(N3CCC[C@@H]3c3cc(F)cc(F)c3)cc12 [Example 69, (R)-5-(2-(3,5-difluorophenyl)pyrrolidin-1-yl)-N-((4-fluorophenyl)sulfonyl)pyrazolo[1,5-a]pyridine-3-carboxamide] | – | – | IC50 [1]: 0.5 to 1 µM
12 | CC(C)(C)S(=O)(=O)NC(=O)c1cnn2ccc(N3C[C@@H](F)CC3c3cc(F)ccc3F)cc12 (single isomer, unassigned) [Example 53] | – | – | IC50 [2]: 1 to 10 µM
13 | O=C(NS(=O)(=O)c1ccc(-n2cncn2)nc1)c1cnn2ccc(N3CCC[C@@H]3c3cc(F)ccc3F)cc12 [Example 27, (R)-N-((6-(1H-1,2,4-triazol-1-yl)pyridin-3-yl)sulfonyl)-5-(2-(2,5-difluorophenyl)pyrrolidin-1-yl)pyrazolo[1,5-a]pyridine-3-carboxamide] | 0.1 to 0.5 | – | –
14 | COCCOc1cc(F)cc([C@H]2CCCN2c2ccn3ncc(C(=O)NS(=O)(=O)C(C)(C)C)c3c2)c1 [Example 67, (R)-N-(tert-butylsulfonyl)-5-(2-(3-fluoro-5-(2-methoxyethoxy)phenyl)pyrrolidin-1-yl) pyrazolo[1,5-a]pyridine-3-carboxamide] | – | – | IC50 [1]: 0.5 to 1 µM
15 | O=C(NS(=O)(=O)c1ccc(N2CC[C@H](O)C2)nc1)c1cnn2ccc(N3CCC[C@@H]3c3cc(F)cc(F)c3)cc12 [Example 73, 5-((R)-2-(3,5-difluorophenyl)pyrrolidin-1-yl)-N-((6-((S)-3-hydroxypyrrolidin-1-yl)pyridin-3-yl)sulfonyl)pyrazolo[1,5-a] pyridine-3-carboxamide] | – | ≤ 0.05 | –
16 | CCN(C)S(=O)(=O)NC(=O)c1cnn2ccc(N3CCC[C@@H]3c3cc(F)cc(F)c3OCCF)cc12 [Example 94, (R)-5-(2-(3,5-difluoro-2-(2-fluoroethoxy)phenyl)pyrrolidin-1-yl)-N-(N-ethyl-N-methylsulfamoyl)pyrazolo[1,5-a]pyridine-3-carboxamide] | – | ≤ 0.05 | –
17 | O=C(NS(=O)(=O)C1CCNCC1)c1cnn2ccc(N3CCC[C@@H]3c3cc(F)ccc3F)cc12 [Example 17, (R)-5-(2-(2,5-difluorophenyl)pyrrolidin-1-yl)-N-(piperidin-4-ylsulfonyl)pyrazolo[1,5-a] pyridine-3-carboxamide] | – | – | IC50 [2]: 1 to 10 µM
18 | CC(C)(C)S(=O)(=O)NC(=O)c1cnn2ccc(N3CCCC3c3cc(F)cc4c3OCCO4)cc12 (single isomer, unassigned) [Example 51, N-(tert-butylsulfonyl)-5-(2-(7-fluoro-2,3-dihydrobenzo [b][1,4]dioxin-5-yl)pyrrolidin-1-yl)pyrazolo[1,5-a]pyridine-3-carboxamide] | – | – | IC50 [2]: 1 to 10 µM
19 | O=C(NS(=O)(=O)c1ccc(Cl)s1)c1cnn2ccc(N3CCC[C@@H]3c3cc(F)ccc3F)cc12 [Example 31, (R)-N-((5-chlorothiophen-2-yl)sulfonyl)-5-(2-(2,5-difluorophenyl)pyrrolidin-1-yl)pyrazolo [1,5-a]pyridine-3-carboxamide] | – | ≤ 0.05 | –
20 | CCN(C)S(=O)(=O)NC(=O)c1cnn2ccc(N3CCC[C@@H]3c3cc(F)ccc3OC3CCOC3)cc12 (stereo partly drawn) [Example 139, Sodium (N-ethyl-N-methylsulfamoyl)(5-((2R)-2-(5-fluoro-2-((tetrahydrofuran-3-yl)oxy)phenyl)pyrrolidin-1-yl)pyrazolo[1,5-a]pyridine-3-carbonyl)amide] | – | ≤ 0.05 | –
21 | O=C(NS(=O)(=O)c1ccc(N2CC[C@H](O)C2)cc1)c1cnn2ccc(N3CCC[C@@H]3c3cc(F)ccc3F)cc12 [Example 8, 5-((R)-2-(2,5-difluorophenyl)pyrrolidin-1-yl)-N-((4-((S)-3-hydroxypyrrolidin-1-yl)phenyl)sulfonyl)pyrazolo[1,5-a] pyridine-3-carboxamide] | – | ≤ 0.05 | –
22 | CC(C)(C)S(=O)(=O)NC(=O)c1cnn2ccc(N3CC(F)(F)CC3c3cc(F)ccc3F)cc12 (single isomer, unassigned) [Example 55] | – | – | IC50 [2]: 1 to 10 µM
23 | CC(C)S(=O)(=O)NC(=O)c1cnn2ccc(N3C[C@@H](F)C[C@@H]3c3cccc(F)c3)c(F)c12 [Example 141, Sodium (4-fluoro-5-((2R,4S)-4-fluoro-2-(3-fluorophenyl)pyrrolidin-1-yl)pyrazolo[1,5-a]pyridine-3-carbonyl) (isopropylsulfonyl)amide] | – | ≤ 0.05 | –
24 | Cc1ncc(S(=O)(=O)NC(=O)c2cnn3ccc(N4CCC[C@@H]4c4cc(F)ccc4F)cc23)n1C [Example 16, (R)-5-(2-(2,5-difluorophenyl)pyrrolidin-1-yl)-N-((1,2-dimethyl-1H-imidazol-5-yl)sulfonyl)pyrazolo[1,5-a] pyridine-3-carboxamide] | – | – | IC50 [2]: 1 to 10 µM
25 | O=C(NS(=O)(=O)c1cccnc1)c1cnn2ccc(N3CCC[C@@H]3c3cc(F)ccc3F)cc12 [Example 30, (R)-5-(2-(2,5-difluorophenyl)pyrrolidin-1-yl)-N-(pyridin-3-ylsulfonyl)pyrazolo[1,5-a]pyridine-3-carboxamide] | – | – | IC50 [1]: 0.5 to 1 µM
26 | Cc1nc(S(=O)(=O)NC(=O)c2cnn3ccc(N4CCC[C@@H]4c4cc(F)ccc4F)cc23)cn1C [Example 15, (R)-5-(2-(2,5-difluorophenyl)pyrrolidin-1-yl)-N-((1,2-dimethyl-1H-imidazol-4-yl)sulfonyl)pyrazolo[1,5-a] pyridine-3-carboxamide] | – | – | IC50 [1]: 0.5 to 1 µM
27 | O=C(NS(=O)(=O)c1ccc(N2CC[C@H](O)C2)cc1)c1cnn2ccc(N3CCC[C@@H]3c3cc(F)cc(F)c3)cc12 [Example 70, 5-((R)-2-(3,5-difluorophenyl)pyrrolidin-1-yl)-N-((4-((S)-3-hydroxypyrrolidin-1-yl)phenyl)sulfonyl)pyrazolo[1,5-a] pyridine-3-carboxamide] | – | ≤ 0.05 | –
